The nature of series [1]: Concentration of the compound in blood after oral administration to rats (bioassay). It is filed as in vivo, Male wister rats. The settings on record: rat, 50 mg/kg. The procedure: Male wister rats (7 weeks old) were administered orally with the test compound, and the change of the concentration of the compound in blood was measured.
Dosage of the test compound: 50 mg/kg
Quantitative method: Bioassy
test bacterium: Escherichia coli SC507)

The test system of series [2] is Enterobactor cloacae IFO 13525. Briefly: Minimal inhibitory concentration, agar plate dilution method. Type of series: cell-based. The procedure:
(§1) The antibacterial activities of the compounds of the present invention against various bacteria (inoculum size : 10^6 cells/ml) were tested by the agar plate dilution method, and the results are shown in the following Table 1.

Series [3] has as its system Klebsiella pneumoniae T 25. The description is as above. The following applies: T25. Type of series: cell-based. The procedure:
as §1

The test system of series [4] is Pseudomonas aeruginosa NCTC 10490. The description is as above. The settings on record: NCTC10490. Type of series: cell-based. How it is done:
as §1

Series [5] relates to Serratia marcescens IID 618. The description is as above. It is filed as cell-based. The following applies: IID618. The procedure:
as §1

Series [6] concerns Escherichia coli NIHJ JC-2. The series is described as above. Type of series: cell-based. The settings on record: NIHJJC2. How it is done: as §1
[7] abbreviates: Enterobactor cloacae IFO 13525, inoculum size 10^6 cells/ml, read-out: MIC.
[8] abbreviates: Klebsiella pneumoniae T 25, inoculum size 10^6 cells/ml, read-out: MIC.
Where [9] appears, read: Pseudomonas aeruginosa NCTC 10490, inoculum size 10^6 cells/ml, read-out: MIC.
Where [10] appears, read: Serratia marcescens IID 618, inoculum size 10^6 cells/ml, read-out: MIC.
Where [11] appears, read: Escherichia coli NIHJ JC-2, inoculum size 10^6 cells/ml, read-out: MIC.

Converted amounts (≈) assume the structure as drawn. Structures can show the parent of a compound that is named as a salt. Where two headings read alike, the source gives them in different places.

Molecule `COC(=O)/C=C\SC1=C(C(=O)O)N2C(=O)[C@@H](NC(=O)/C(=N\OCC(=O)O)c3csc(N)n3)[C@H]2SC1` [A, 7β-{α-(2-aminothiazole-4-yl)-β-[(Z)-carboxymethoxyimino]acetamido)}-3[(Z)-2-methoxycarbonylvinylthio]-3-cephem-4-carboxylic acid sodium salt] yielded a concentration at 1 h in series [1] of 37800 ng/mL. Besides, the concentration at 2 h in series [1] was found to be 38900 ng/mL. Moreover, the concentration at 4 h in series [1] came to 32500 ng/mL. The MIC – broadly, the smallest concentration in the dilution series that meets the test's criterion for growth inhibition – in series [2] (setting [7]) was determined as 25 µg/mL; in series [3] (setting [8]), 0.39 µg/mL; in series [4] (setting [9]) it was 25 µg/mL; in series [5] (setting [10]), 1.56 µg/mL; in series [6] (setting [11]), 0.2 µg/mL.

With `CCOC(=O)/C=C\SC1=C(C(=O)O)N2C(=O)[C@@H](NC(=O)/C(=N\OCC(=O)O)c3csc(N)n3)[C@H]2SC1` [B], in series [1], the concentration at 1 h was determined as 34000 ng/mL. In addition, the concentration at 2 h in series [1] came out at 37100 ng/mL. In series [1], this molecule yielded a concentration at 4 h of 31000 ng/mL. The MIC in series [2] (setting [7]) worked out at 12.5 µg/mL (≈ 22.4 µM); in series [3] (setting [8]), 0.39 µg/mL (≈ 0.699 µM); in series [4] (setting [9]), 3.13 µg/mL (≈ 5.61 µM); in series [5] (setting [10]) it was 0.39 µg/mL (≈ 0.699 µM); in series [6] (setting [11]), 0.2 µg/mL (≈ 0.359 µM).

In the case of `CC(C)OC(=O)/C=C\SC1=C(C(=O)O)N2C(=O)[C@@H](NC(=O)/C(=N\OCC(=O)O)c3csc(N)n3)[C@H]2SC1` [C], the MIC came out at 6.25 µg/mL (≈ 10.9 µM) in series [2] (setting [7]); 0.39 µg/mL (≈ 0.682 µM) in series [3] (setting [8]); 12.5 µg/mL (≈ 21.9 µM) in series [4] (setting [9]); 0.39 µg/mL (≈ 0.682 µM) in series [5] (setting [10]); 0.39 µg/mL (≈ 0.682 µM) in series [6] (setting [11]).

`C=CCOC(=O)/C=C\SC1=C(C(=O)[O-])N2C(=O)[C@@H](NC(=O)/C(=N\OCC(=O)[O-])c3csc(N)n3)[C@H]2SC1.[Na+].[Na+]` [D, 7β-{α-(2-aminothiazole-4-yl)-α-[(Z)-carboxymethoxyimino]acetamido}-3-[(Z)-2-allyloxycarbonylvinylthio]-3-cephem-4-carboxylic acid sodium salt]: the MIC in series [2] was found to be 12.5 µg/mL; in series [3] (Klebsiella pneumoniae), 0.39 µg/mL; in series [4] (Pseudomonas aeruginosa) it was 6.25 µg/mL; in series [5] (Serratia marcescens), 0.39 µg/mL; in series [6] (Escherichia coli) it was 0.39 µg/mL.

For `CC1=C(C(=O)O)N2C(=O)[C@@H](NC(=O)[C@H](N)c3ccccc3)[C@H]2SC1` [YY, Cefalexin, reference compound], the minimum inhibitory concentration (MIC) in series [2] was over 100 µg/mL; in series [3] (Klebsiella pneumoniae), 100 µg/mL (≈ 288 µM); in series [4] (Pseudomonas aeruginosa), over 100 µg/mL; in series [5] (Serratia marcescens), over 100 µg/mL; in series [6] (Escherichia coli), 12.5 µg/mL (≈ 36 µM).
